{"source": "patent US20240237650A1", "about": "“AQUEOUS FUNGICIDE MIXTURE FORMULATION” (ADAMA MAKHTESHIM LTD., priority 2021, published 2024)", "origin": "cited, not measured here", "details": "20° C.", "note": "Where two headings read alike, the source gives them in different places.", "data": [{"smiles": "CO/C=C(/C(=O)OC)c1ccccc1Oc1cc(Oc2ccccc2C#N)ncn1", "note": "[azoxystrobin, methyl (E)-2-{2[6-(2-cyanophenoxy)pyrimidin-4-yloxy]phenyl}-3-methoxyacrylate]", "values": [{"measurement": "solubility of azoxystrobin in water", "setting": "pH 5.2 and 7.0", "value": 6.7, "unit": "µg/mL"}, {"measurement": "solubility of azoxystrobin in water", "setting": "pH 9.2", "value": 5.9, "unit": "µg/mL"}]}]}
